Results taken from paper PMC4911353, “Pharmacologic Inhibition of Host Phosphodiesterase-4 Improves Isoniazid-Mediated Clearance of Mycobacterium tuberculosis” (Frontiers in Immunology, 2016).

System: Mtb-infected mouse lungs
Assay: Genome-wide lung transcriptome (microarray, IPA network/GO analysis) of Mtb-infected mice
Type: in vivo
Conditions: TNF-a regulon network

Compound: CCOc1cc([C@@H](CS(C)(=O)=O)N2Cc3cccc(NC(=O)C4CC4)c3C2=O)ccc1OC [CC-11050, N-[2-[(1S)-1-(3-ethoxy-4-methoxyphenyl)-2-(methylsulfonyl)ethyl]-2,3-dihydro-3-oxo-1H-isoindol-4-yl]-(9Cl) cyclopropanecarboxamide]
- ENTPD5 expression: 0
- ERCC1 expression: 0
- ERG expression: 0
- ESM1 expression: 0
- FABP1 expression: 0
- FABP4 expression: 0
- FBL expression: 0
- FBXO32 expression: 0
- FCER1G expression: 0
- FCER2 expression: 0
- FGF2 expression: 1.266
- FGF10 expression: 0
- FGF18 expression: 0
- FGFRL1 expression: 0
- FMO1 expression: 0
- FN1 expression: 0
- FNBP1 expression: 0
- FOXO4 expression: 0
- FPR1 expression: 0
- FUT4 expression: 0
- GAB1 expression: 0
- GBP2 expression: 0
- GCLM expression: 0
- GHR expression: 0
- GNAI1 expression: 0
- GNB4 expression: 0
- GNL1 expression: 0
- GOSR2 expression: 0
- GPD1 expression: 0
- GPR126 expression: 0
- GPR176 expression: 0
- GRIA1 expression: 0
- GRN expression: 0
- GSTM2 expression: 0
- GSTT1 expression: 1.249
- GUSB expression: 0
- Gbp2 expression: 0
- Gbp4 expression: 0
- Gbp6 (includes others) expression: 0
- Gsta4 expression: 0
- H2-Q4 expression: 0
- HAPLN1 expression: 0
- HERC1 expression: 0
- HES1 expression: 0
- HEXB expression: 0
- HIF1A expression: 0
- HIPK3 expression: 0
- HIVEP1 expression: 0
- HK2 expression: 0
- HK3 expression: 0
- HLA-B expression: 0
- HLA-C expression: 0
- HLA-DRA expression: 0
- HLA-E expression: 0
- HLA-F expression: 0
- HMGN2 expression: 0
- HPGD expression: 0
- HPGDS expression: 0
- HPRT1 expression: 0
- HSD3B2 expression: 0
- HSD11B1 expression: 1.622
- ID1 expression: 1.521
- IDH2 expression: 0
- IDO1 expression: 0
- IFIH1 expression: 0
- IFIT1B expression: 0
- IFNAR2 expression: 0
- IGFBP5 expression: 0
- IGFBP6 expression: 0
- IL1RN expression: 0
- IL2RA expression: 0
- IL10RA expression: 0
- IL17RD expression: 0
- IL18BP expression: 0
- IL21R expression: 0
- IL21 expression: 0
- INHBA expression: 0
- IRF1 expression: 0
- IRF5 expression: 0
- IRF7 expression: 0
- IRF8 expression: 0
- IRG1 expression: 0
- ISG15 expression: 0
- ITGA4 expression: 0
- ITGAL expression: 0
- ITGAM expression: 0
- ITGB2 expression: 0
- ITGB7 expression: 0
- Ifi204 (includes others) expression: 0
- KCNJ1 expression: 0
- KDR expression: 0
- KIF20A expression: 0
- KITLG expression: 0
- KLF7 expression: 1.276
- KLF10 expression: 1.476
- KRT23 expression: 0
- KYNU expression: 0
- LAMP3 expression: 0
- LCAT expression: 0
- LCN2 expression: 0
- LEP expression: 0
- LGALS12 expression: 0
- LITAF expression: 0
- LOC653486/SCGB1C1 expression: 0
- LOX expression: 1.533
- LPL expression: 0
- LRRC8C expression: 0
- LTB expression: 0
- LXN expression: 0
- LYVE1 expression: 1.461
- MAN1C1 expression: 0
- MAP2K3 expression: 1.176
- MAP4K4 expression: -1.132
- MAPKAP1 expression: 0
- MARCKSL1 expression: 0
- MCL1 expression: 0
- MCM3 expression: 0
- MEFV expression: 0
- MEOX1 expression: 0
- MEOX2 expression: 0
- MMP7 expression: 1.207
- MMP8 expression: 0
- MMP13 expression: 0
- MMP16 expression: 0
- MMP28 expression: 0
- MPC1 expression: 0
- MSR1 expression: 0
- MUC4 expression: 0
- MVP expression: 0
- MYO9B expression: 0
- NAGLU expression: 0
- NAIP expression: 0
- NAMPT expression: 0
- NCAM1 expression: 0
- NCF2 expression: 0
- NCOA2 expression: 0
- NEDD9 expression: -1.086
- NFATC1 expression: 0
- NFKB2 expression: 0
- NFKBIA expression: 0
- NFKBIE expression: 0
- NFKBIZ expression: -1.15
- NFRKB expression: 0
- NME3 expression: 1.1811
- NNMT expression: 0
- NPM3 expression: 0
- NPPA expression: 0
- NR4A1 expression: 0
- NR4A3 expression: 0
- NRP1 expression: 0
- NTN1 expression: 0
- NUAK1 expression: 0
- NUAK2 expression: 0
- Nppb expression: 0
- OAS1 expression: 0
- OAS2 expression: 0
- OAS3 expression: 0
- OASL expression: 0
- OCLN expression: 0
- OGN expression: 1.2
- OLFML2B expression: 0
- OLR1 expression: 0
- P2RY6 expression: 0
- PAFAH2 expression: 0
- PC expression: 0
- PCBP2 expression: 0
- PCDH7 expression: 0
- PCK1 expression: 0
